According to PMC6271349, “Synthesis and Biological Evaluation of 2-Phenoxyacetamide Analogues, a Novel Class of Potent and Selective Monoamine Oxidase Inhibitors” (Molecules, 2014):
Read-outs that look alike come from different tables or passages of the source.

Columns and labels:
Type in all cases: biochemical
[1] = target: T1, Human recombinant Monoamine Oxidase B (Homo sapiens, UniProt P27338); assay: MAOs inhibitory assay (fluorescence-based microplate), MAO-B; conditions: recombinant enzyme; inhibitor incubated 37 °C 3 h, borate buffer pH 8.4; mean IC50
T1 construct: purchased Sigma Aldrich M7441
T1 sequence (P27338 1-520): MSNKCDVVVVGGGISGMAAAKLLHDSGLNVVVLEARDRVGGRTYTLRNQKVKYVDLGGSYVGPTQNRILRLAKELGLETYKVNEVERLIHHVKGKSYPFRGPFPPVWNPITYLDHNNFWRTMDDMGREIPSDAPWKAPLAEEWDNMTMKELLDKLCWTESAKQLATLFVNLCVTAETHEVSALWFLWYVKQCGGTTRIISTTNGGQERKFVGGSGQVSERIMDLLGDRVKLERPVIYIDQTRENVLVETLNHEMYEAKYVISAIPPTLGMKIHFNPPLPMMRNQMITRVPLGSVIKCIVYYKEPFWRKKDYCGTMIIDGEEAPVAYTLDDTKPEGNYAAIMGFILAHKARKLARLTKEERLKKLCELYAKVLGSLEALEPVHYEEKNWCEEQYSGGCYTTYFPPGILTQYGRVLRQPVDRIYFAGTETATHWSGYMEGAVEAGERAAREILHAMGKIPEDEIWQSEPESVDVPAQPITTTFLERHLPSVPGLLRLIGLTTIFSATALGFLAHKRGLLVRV
Method: (§1) All of these compounds were evaluated for their inhibitory abilities towards MAOs. The inhibition activities against MAO-A and MAO-B of the synthesized compounds were investigated by our reported method.
(§2) Silica gel (100–200 mesh, Qingdao Haiyang Chemical Co., Qingdao, China) was used for flash column chromatography. Analytical thin-layer chromatography was performed with GF254 silica gel. ^1H-NMR spectra were recorded on a Bruker Avance 300 MHz apparatus. HR-ESI-MS and HR-EI analysis were measured on a Bruker micrOTOF-QII and Waters GCT Premier GC-TOF-MS spectrometer, respectively. All chemicals were purchased from the Eastern China Chemical Co (Hangzhou, China). All fluorescent data was recorded on Spectrum M2 (Molecular Device Company). Human recombinant Monoamine Oxidase A (M7316) and B (M7441) (5 mg/mL) were purchased from Sigma Aldrich. Pierce BCA protein assay kit (23227) was purchased from Thermo Scientific.
(§3) MAO IC50 values were determined using our reported fluorescence-based microplate assay. […] The fluorescent signals were measured at λex 360 nm and λem 460 nm on a Spectrum-M2 spectrofluorometer.

[2] = target: T2, Human recombinant Monoamine Oxidase A (Homo sapiens, UniProt P21397); assay: MAOs inhibitory assay (fluorescence-based microplate), MAO-A; conditions: for SI (selectivity index): SI = (IC50 of MAO-B)/(IC50 of MAO-A); for IC50: recombinant enzyme
T2 construct: purchased Sigma Aldrich M7316
T2 sequence (P21397 1-527): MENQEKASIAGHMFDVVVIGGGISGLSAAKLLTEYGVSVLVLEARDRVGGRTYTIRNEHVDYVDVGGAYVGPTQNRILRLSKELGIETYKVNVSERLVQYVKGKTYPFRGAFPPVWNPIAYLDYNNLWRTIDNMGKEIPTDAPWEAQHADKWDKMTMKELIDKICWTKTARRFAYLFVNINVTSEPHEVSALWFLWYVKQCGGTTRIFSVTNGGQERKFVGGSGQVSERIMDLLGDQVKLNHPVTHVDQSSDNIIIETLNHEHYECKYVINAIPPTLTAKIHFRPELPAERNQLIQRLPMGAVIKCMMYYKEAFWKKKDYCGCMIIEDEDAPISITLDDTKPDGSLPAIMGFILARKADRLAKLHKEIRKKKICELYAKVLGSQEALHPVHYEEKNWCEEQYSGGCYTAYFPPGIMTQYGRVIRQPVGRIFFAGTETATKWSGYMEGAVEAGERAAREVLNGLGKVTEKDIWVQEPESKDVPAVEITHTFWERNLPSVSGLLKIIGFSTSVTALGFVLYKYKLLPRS
Method: as §1, §2, §3

[3] = target: T3, MAO-A (Homo sapiens, UniProt P21397); assay: Reversibility of MAO-A inhibition (repeated washing method); conditions: for inhibition at 0.1 µM: inhibitor 100 nM; for reversibility of MAO-A inhibition: repeated washing method
T3 construct: purchased Sigma Aldrich M7316
T3 sequence (P21397 1-527): T2 sequence (P21397 1-527)
Method: (§4) Reversibility of the MAO inhibition with derivatives of acetamides was evaluated by a reported method. […] After incubating for 2 h, an aliquot was stored at 4 °C for the measurement of MAO-A and -B activity. The remaining reaction solution was placed in an Ultrafree-0.5 centrifugal tube with a 30 kDa Biomax membrane (Millipore) and centrifuged at 9000 g for 20 min at 4 °C. The enzyme retained in the membrane was resuspended in a sodium phosphate buffer and centrifuged two successive times. Then, the enzyme retained in the membrane was resuspended in PBS ([…]) and an aliquot of this suspension was used for MAO-A and -B activity measurement. In order to define 100% MAO activity, control experiments were performed simultaneously by replacing the inhibitors with appropriate dilutions of the vehicles. The corresponding values of percent MAO isoforms inhibition (with and without repeated washing) were calculated based on the control experiments.

[4] = target: T4, native MAO-A in SH-SY5Y (neuroblastoma cells) lysate (Homo sapiens, UniProt P21397); assay: MAO inhibitory activity in SH-SY5Y cell lysate (endogenous MAO-A); conditions: for IC50: SH-SY5Y lysate (only endogenous MAO-A activity), repeated three times; for times more potent in SH-SY5Y lysate relative to HepG2 lysate: ratio of lysate IC50 values (HepG2/SH-SY5Y)
T4 construct: endogenous in cells; host or cells: SH-SY5Y (neuroblastoma cells) lysate
T4 sequence (P21397 1-527): T2 sequence (P21397 1-527)
Method: (§5) Compounds 12, 21, 22, 25 were chosen for comparison due to their excellent inhibitory activities, and the results were shown in Table 2. […] This is most likely due to the instability of imine group in cell lysates.
as §3
(§6) Cells were cultured at 37 °C and 5% CO2 in RPMI-1640 media containing 100 units/mL penicillin, 100 μg/mL streptomycin, and 10% FBS. For lysis, cells were resuspended at 5 × 10^7 cells/mL in lysis buffer (42.3 mM PBS, 126 mM NaCl, 1.27 mM MgCl2, 0.85 mM EDTA, 1 mM PMSF, 0.95% Triton X-100, 9.5% glycerol, 4% 25× complete protease inhibitor, pH 7.4). The cells were vortexed to mix and keep on ice for 30 min, and then sonicated to break the cells (180 watts). The cell lysate was then clarified by ultracentrifugation at 4 °C for 30 min at 45,000. Total protein concentration was determined via a Bradford Protein Assay Kit (Bio-Rad) and cell lysates were stored at −80 °C until further use.

[5] = target: T5, MAO-B (Homo sapiens, UniProt P27338); assay: Reversibility of MAO-B inhibition (repeated washing method); conditions: for inhibition at 0.1 µM: inhibitor 100 nM; for reversibility of MAO-B inhibition: repeated washing method
T5 construct: purchased Sigma Aldrich M7441
T5 sequence (P27338 1-520): T1 sequence (P27338 1-520)
Method: as §4

[6] = target: T6, native MAO-B in HepG2 (human hepatocellular liver carcinoma cell) lysate (Homo sapiens, UniProt P27338); assay: MAO inhibitory activity in HepG2 cell lysate (endogenous MAO-B); conditions: HepG2 lysate (only endogenous MAO-B activity); repeated three times
T6 construct: endogenous in cells; host or cells: HepG2 (human hepatocellular liver carcinoma cell) lysate
T6 sequence (P27338 1-520): T1 sequence (P27338 1-520)
Method: as §5, §3, §6

[7] = inhibitor incubated 37 °C 3 h, borate buffer pH 8.4, mean IC50, read-out: IC50 (μM) MAO-A
[8] = after repeated washing, read-out: MAO-A Inhibiton (%) After Washing
[9] = before washing, read-out: MAO-A Inhibiton (%) Before Washing

IC50 [1] [µM]	SI (selectivity index) [2]	IC50 [2, 7] [µM]	SMILES	further results
980	245	4	COc1ccc(OCC(N)=O)cc1 [Compound 12, 2-(4-Methoxyphenoxy)acetamide]	enzyme activity recovered after repeated washing (MAO-A) ([3]; after repeated washing): more than 80%; inhibition at 0.1 µM [3, 8]: 12.5%; inhibition at 0.1 µM [3, 9]: 88.7%; reversibility of MAO-A inhibition [3]: reversible; IC50 [4]: 5.4 µM; enzyme activity recovered after repeated washing (MAO-B) ([5]; after repeated washing): more than 80%; inhibition at 0.1 µM ([5]; after repeated washing, read-out: MAO-B Inhibiton (%) After Washing): 8.6%; inhibition at 0.1 µM ([5]; before washing, read-out: MAO-B Inhibiton (%) Before Washing): 96.9%; reversibility of MAO-B inhibition [5]: reversible
694	7.08	98	NC(=O)COc1ccccc1Cl [Compound 5]	–
775	8.07	96	COc1ccccc1OCC(N)=O [Compound 11]	–
778	11.27	69	NC(=O)COc1ccccc1 [Compound 1]	–
575	5.99	96	NC(=O)COc1ccc(C=NCc2ccccc2)cc1 [Compound 23]	–
559	3.94	142	NC(=O)COc1ccccc1C=O [Compound 7]	–
553	9.07	61	CC(=O)Nc1ccc(OCC(N)=O)cc1 [Compound 16]	–
534	4.73	113	Cc1ccc(OCC(N)=O)cc1C [Compound 8]	–
663	25.5	26	Cc1ccccc1OCC(N)=O [Compound 9]	–
296	1.51	196	CC(C)(C)OC(=O)Nc1ccc(OCC(N)=O)cc1 [Compound 15]	–
–	–	–	C[C@H](NCc1ccc(OCc2cccc(F)c2)cc1)C(N)=O [Safinamide, reference compound]	enzyme activity recovered after repeated washing (MAO-A) ([3]; after repeated washing): more than 80%; inhibition at 0.1 µM [3, 8]: 9.8%; inhibition at 0.1 µM [3, 9]: 36.1%; reversibility of MAO-A inhibition [3]: reversible; enzyme activity recovered after repeated washing (MAO-B) ([5]; after repeated washing): more than 80%; reversibility of MAO-B inhibition [5]: reversible
0.076	4.22	–	C#CCN=Cc1ccc(OCC(N)=O)cc1 [Compound 21, 2-(4-((prop-2-ynylimino)methyl)phenoxy)acetamide]	IC50 [6]: 0.41 µM; IC50 ([2]; read-out: IC50 value (MAO-A)): 0.018 µM; IC50 [4]: 0.18 µM; times more potent in SH-SY5Y lysate relative to HepG2 lysate [4]: 2.3 times
714	3.84	186	NC(=O)COc1ccccc1C1=NCCN1 [Compound 20]	–
457	5.13	89	NC(=O)COc1ccc(C=O)cc1 [Compound 6]	–
202	0.41	490	NC(=O)COc1ccc(Cl)cc1 [Compound 4]	–
98	0.91	108	COC(=O)c1ccccc1OCC(N)=O [Compound 14]	–
642	3.87	166	NC(=O)CSc1ccccc1 [Compound 17]	–
255	2.77	92	NC(=O)COc1ccc(F)cc1 [Compound 3]	–
177	0.82	217	NC(=O)COc1ccccc1C(=O)O [Compound 13]	–
542	3.64	149	NC(=O)COc1ccc2ccccc2c1 [Compound 2]	–
366	–	292	Cc1ccc(SCC(N)=O)cc1C [Compound 18]	–
0.176	2.59	0.068	C#CCN=Cc1ccccc1OCC(N)=O [Compound 25]	IC50 [6]: 1.81 µM; IC50 [4]: 0.88 µM; times more potent in SH-SY5Y lysate relative to HepG2 lysate [4]: 2.1 times
506	8.30	61	NC(=O)COc1ccc(C2=NCCN2)cc1 [Compound 19]	–
541	180	3	Cc1ccc(OCC(N)=O)cc1 [Compound 10]	–
